Test [1] deals with T1, human recombinant bradykinin B1 receptor (Homo sapiens, UniProt P46663).
T1 construct: host or cells: CHO cells, clone hB1-A5
T1 sequence (P46663 1-353): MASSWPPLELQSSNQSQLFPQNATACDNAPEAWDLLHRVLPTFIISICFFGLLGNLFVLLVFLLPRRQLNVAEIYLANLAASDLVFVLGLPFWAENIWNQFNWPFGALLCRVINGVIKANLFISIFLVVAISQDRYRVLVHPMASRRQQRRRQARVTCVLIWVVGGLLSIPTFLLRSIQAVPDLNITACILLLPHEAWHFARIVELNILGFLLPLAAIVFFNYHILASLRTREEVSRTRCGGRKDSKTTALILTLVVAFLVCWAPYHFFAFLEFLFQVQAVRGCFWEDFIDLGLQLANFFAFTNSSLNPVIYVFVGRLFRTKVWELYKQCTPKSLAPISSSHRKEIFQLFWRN
The test can be described thus: Human recombinant bradykinin B1 receptor competitive radioligand binding. The note with it: hB1 expressed in CHO cells, [3H]-[Des-Arg10] Kallidin radioligand; read-out: B1 binding. How it is done:
Assessment of Ligand Binding Affinity to B1 and B2 Receptors In Vitro by Competitive Radioligand Binding Assay
Binding assays were carried out on human recombinant bradykinin) receptors (expressed in CHO cells, hB1-A5) according to the Euroscreen Technical Data Sheet (Cat.No.:ES-091). 20 μg protein/tube was incubated with [3,4-prolyl-3,4-^3H(N)]-[Des-Arg^10] Kallidin as radioligand. Non specific binding was determined in the presence of 10 μM Lys-des-Arg^9-Bradykinin. The final incubation volume was 250 μl. Samples were incubated for 15 min. at 25° C. then were rapidly vacuum filtered through GF/B filters presoaked for at least 1 h in 0.5% PEI. Radioactivity was determined by liquid scintillation spectroscopy.
The ligand displacement by the compounds was determined using a minimum of seven concentrations in triplicate, and experiments were repeated at least two times. The specific radioligand binding is defined as the difference between total binding and the non-specific binding determined in the presence of an excess of unlabelled ligand. Results are expressed as a percent inhibition of specific binding obtained in the presence of RGH-478 or reference drugs. IC50 values (i.e. concentration of compound giving 50% inhibition of specific binding) were calculated from concentration-displacement curves by sigmoidal fitting using GraphPad Prism Software 4.0. Ki values (i.e. inhibition constants) were calculated using the Cheng-Prusoff equation. KD was determined from the Scatchard plot. (Editor-in-chief: Enna, S. J. and Williams, M. Current protocols in pharmacology vol. 1. John Wiley & sons Inc., 1998)

For test [2], the target named is T2, recombinant human B1 receptors (Homo sapiens, UniProt P46663).
T2 construct: host or cells: CHO (CHO-B1)
T2 sequence (P46663 1-353): T1 sequence (P46663 1-353)
As to the kind of experiment: Functional assay: antagonist potency by cytosolic calcium measurement (plate reader fluorimeter) in CHO-B1 cells, agonist LysDABK. The note with it: CHO-B1 cells, inhibition of LysDABK (EC80)-evoked [Ca2+]i elevation; read-out: B1 func. Format: cell-based. As for the experimental part: Assessment of Antagonist Potency at B1 Receptors In Vitro by Measurement of Cytosolic Calcium Ion Concentration with a Plate Reader Fluorimeter in Cells Expressing Recombinant Human B1 Receptors
Chinese hamster ovary (CHO) cells stably expressing recombinant human B1 (CHO-B1, Euroscreen) receptors were cultured in Dulbecco's Modified Eagle's Medium (DMEM) containing 10% Fetal Calf Serum (FCS), 100 U/ml penicillin, 0.1 mg/ml streptomycin, 0.25 μg/ml amphotericin B, 1% Minimum Essential Medium Eagle (MEM), non essential amino acid solution, 600 μg/ml G418. Cells were kept at 37° C. in a humidified incubator in an atmosphere of 5% CO2/95% air and were passaged 1:4 three times a week. Cells were plated at 1.5−2.5×10^4 cell/well on standard 96-well microplates, measurements of cytosolic calcium ion concentration ([Ca^2+]i) were carried out 1-2 days after cell plating.
Measurements of [Ca^2+]i were carried out on CHO-B1 cells stably expressing human B1 receptors, respectively. Cells were grown in standard 96-well microplates and before the measurement were loaded with a fluorescent Ca^2+-sensitive dye, fluo-4/AM (2 μM): after removing the culture medium the dye was added to the cells (dissolved in assay buffer: 145 mM NaCl, 5 mM KCl, 2 mM MgCl2, 2 mM CaCl2, 10 mM HEPES, 20 mM D-glucose, 2 mM probenecid, 100 μl/well) and cells were incubated at 37° C. in a humidified incubator in an atmosphere of 5% CO2/95% air for 40-120 min. To stop dye loading cells were washed twice with assay buffer. After washing, various concentrations of the test compounds (diluted in extracellular medium from a DMSO stock solution, final DMSO concentration was <0.1%) or buffer were added to each well depending on the experimental setup. After incubation at 37° C. for 20-25 min. baseline and agonist-evoked changes of [Ca^2+]; were measured column by column with a plate reader fluorimeter (Fluoroskan Ascent, Labsystems). Excitation and detection of emission was carried out from the bottom of the plate. Filters used for Fluo-4: excitation filter 485 nm, emission filter 538 nm. The whole measurement process was performed at 37° C. and was controlled by custom software. Inhibitory potency of the test compounds was assessed by measuring the reduction in the agonist-evoked [Ca^2+]i-elevation in the presence of different concentrations of the compounds. The agonist was LysDABK for CHO-B1 cells. Agonist was applied at an EC80 concentration; the EC80-values were derived from daily determined dose-response curves. Fluorescence data were expressed as ΔF/F (fluorescence change normalized to baseline). All treatments on a single plate were measured in multiple wells. Data from all wells with the same treatment were averaged and the average values were used for analysis. Inhibitory potency of a compound at a single concentration point was expressed as percent inhibition of the control agonist response. Sigmoidal concentration-inhibition curves were fitted to the data (derived from at least three independent experiments) and IC50-values were determined as the concentration that produces half of the maximal inhibition caused by the compound.

Some results are limits rather than exact numbers.

Regarding `CC(NC(=O)C1(NC(=O)C(F)(F)F)CC1)c1ccc(-n2c(C(=O)N3CCCC3)c(Cl)c3ccccc32)cc1` (centres unmarked) [Example 33, 1-(2,2,2-Trifluoro-acetylamino)-cyclopropanecarboxylic acid (1-{4-[3-chloro-2-(pyrrolidine-1-carbonyl)-indol-1-yl]-phenyl}-ethyl)-amide], the Ki in test [1] is 0.02 to 0.1 µM. Besides, in test [2], the IC50 fell in the range of 0.1 to 0.5 µM.

Consider `CCOC(=O)c1c(Cl)c2ccccc2n1-c1ccc(CNC(=O)C2(NC(=O)c3cc(OC)no3)CC2)cc1` [Example 34, 3-Chloro-1-{4-[({1-[(3-methoxy-isoxazole-5-carbonyl)-amino]-cyclopropane-carbonyl}-amino)-methyl]-phenyl}-1H-indole-2-carboxylic acid ethyl ester], for which the Ki in test [1] is under 0.02 µM. Further, in test [2], the IC50 lay in the range of 0.02 to 0.1 µM.

As to `COc1cc(C(=O)NC2(C(=O)NCc3ccc(-n4c(C(=O)N(C)C)c(Cl)c5ccccc54)cc3)CC2)on1` [Example 35, 3-Chloro-1-{4-[({1-[(3-methoxy-isoxazole-5-carbonyl)-amino]-cyclopropane-carbonyl}-amino)-methyl]-phenyl}-1H-indole-2-carboxylic acid dimethylamide], the Ki in test [1] was under 0.02 µM. Further, in test [2], the IC50 was in the range of 0.02 to 0.1 µM.

Take `Cn1nnc(-c2cc3ccccc3n2-c2ccc(CNC(=O)C3(NC(=O)C(F)(F)F)CC3)cc2)n1` [Example 36, 1-(2,2,2-Trifluoro-acetylamino)-cyclopropanecarboxylic acid 4-[2-(2-methyl-2H-tetrazol-5-yl)-indol-1-yl]-benzylamide]: in test [1], the Ki is under 0.02 µM. Moreover, in test [2], the IC50 is under 0.02 µM.

As for `COc1cc(C(=O)NC2(C(=O)NCc3ccc(-n4c(-c5nnc(C)o5)c(Cl)c5cc(F)ccc54)cc3)CC2)on1` [Example 37, 3-Methoxy-isoxazole-5-carboxylic acid (1-{4-[3-chloro-5-fluoro-2-(5-methyl-[1,3,4]oxadiazol-2-yl)-indol-1-yl]-benzylcarbamoyl}-cyclopropyl)-amide], the Ki in test [1] is under 0.02 µM. The IC50 in test [2] was under 0.02 µM.

On to `COc1cc(C(=O)NC2(C(=O)NCc3ccc(-n4c(-c5ncc(C)o5)c(Cl)c5ccccc54)cc3)CC2)on1` [Example 38, 3-Methoxy-isoxazole-5-carboxylic acid (1-{4-[3-chloro-2-(5-methyl-oxazol-2-yl)-indol-1-yl]-benzylcarbamoyl}-cyclopropyl)-amide], for which, in test [1], the Ki is under 0.02 µM. Further, the IC50 in test [2] is 0.02 to 0.1 µM.

Take `COc1cc(C(=O)NC2(C(=O)NCc3ccc(-n4c(C#N)c(Cl)c5ccccc54)cc3)CC2)on1` [Example 39, 3-Methoxy-isoxazole-5-carboxylic acid {1-[4-(3-chloro-2-cyano-indol-1-yl)-benzyl-carbamoyl]-cyclopropyl}-amide]: the Ki in test [1] was under 0.02 µM. The IC50 in test [2] is under 0.02 µM.

As to `Cc1nc(-c2c(Cl)c3ccccc3n2-c2ccc([C@@H](C)NC(=O)C3(NC(=O)C(F)(F)F)CC3)cc2)no1` [Example 40, (R)-1-(2,2,2-Trifluoro-acetylamino)-cyclopropanecarboxylic acid (1-{4-[3-chloro-2-(5-methyl-[1,2,4]oxadiazol-3-yl)-indol-1-yl]-phenyl}-ethyl)-amide], the Ki in test [1] was under 0.02 µM. Further, the IC50 in test [2] was under 0.02 µM.

On to `COc1cc(C(=O)NC2(C(=O)N[C@H](C)c3ccc(-n4c(-c5noc(C)n5)c(Cl)c5ccccc54)cc3)CC2)on1` [Example 41, (R)-3-Methoxy-isoxazole-5-carboxylic acid [1-(1-{4-[3-chloro-2-(5-methyl-[1,2,4]oxadiazol-3-yl)-indol-1-yl]-phenyl}-ethylcarbamoyl)-cyclopropyl]-amide], for which the Ki in test [1] is under 0.02 µM. Besides, the IC50 in test [2] is under 0.02 µM.

`CCCc1cc(C(=O)NC2(C(=O)NCc3ccc(-n4c(-c5noc(C)n5)c(Cl)c5ccccc54)cc3)CC2)on1` [Example 42, 3-Propyl-isoxazole-5-carboxylic acid (1-{4-[3-chloro-2-(5-methyl-[1,2,4]oxadiazol-3-yl)-indol-1-yl]-benzylcarbamoyl}-cyclopropyl)-amide]: in test [1], the Ki was under 0.02 µM. The IC50 in test [2] is under 0.02 µM.

In the case of `COc1cc(C(=O)NC2(C(=O)NCc3ccc(-n4c(C#N)cc5cc(Cl)ccc54)cc3)CC2)on1` [Example 43, 3-Methoxy-isoxazole-5-carboxylic acid {1-[4-(5-chloro-2-cyano-indol-1-yl)-benzylcarbamoyl]-cyclopropyl}-amide], in test [1], the Ki was under 0.02 µM. The IC50 in test [2] lay in the range of 0.02 to 0.1 µM.

For `COc1ccc2c(c1)cc(C#N)n2-c1ccc(CNC(=O)C2(NC(=O)c3cncc(C(F)(F)F)c3)CC2)cc1` [Example 44, N-{1-[4-(2-Cyano-5-methoxy-indol-1-yl)-benzylcarbamoyl]-cyclopropyl}-5-trifluoromethyl-nicotinamide], the Ki in test [1] is under 0.02 µM. For the same molecule, the IC50 in test [2] was under 0.02 µM.

For the molecule `N#Cc1cc2cc(F)ccc2n1-c1ccc(CNC(=O)C2(NC(=O)c3cncc(C(F)(F)F)c3)CC2)cc1` [Example 45, N-{1-[4-(2-Cyano-5-fluoro-indol-1-yl)-benzylcarbamoyl]-cyclopropyl}-5-trifluoromethyl-nicotinamide], the Ki in test [1] was under 0.02 µM. The IC50 in test [2] is under 0.02 µM.

`Cc1nc(-c2cc3cc(F)ccc3n2-c2ccc(CNC(=O)C3(NC(=O)c4cncc(C(F)(F)F)c4)CC3)cc2)no1` [Example 46, N-(1-{4-[5-Fluoro-2-(5-methyl-[1,2,4]oxadiazol-3-yl)-indol-1-yl]-benzylcarbamoyl}-cyclopropyl)-5-trifluoromethyl-nicotinamide]: the Ki in test [1] is under 0.02 µM. For the same molecule, the IC50 in test [2] was under 0.02 µM.

For `COc1cc(C(=O)NC2(C(=O)NCc3ccc(-n4c(-c5noc(C)n5)cc5cc(F)ccc54)cc3)CC2)on1` [Example 47, 3-Methoxy-isoxazole-5-carboxylic acid (1-{4-[5-fluoro-2-(5-methyl-[1,2,4]oxadiazol-3-yl)-indol-1-yl]-benzylcarbamoyl}-cyclopropyl)-amide], in test [1], the Ki was under 0.02 µM. In test [2], the IC50 is under 0.02 µM.

As for `COc1ccc2c(c1)cc(C#N)n2-c1ccc(CNC(=O)C2(NC(=O)c3cc(OC)no3)CC2)cc1` [Example 48, 3-Methoxy-isoxazole-5-carboxylic acid {1-[4-(2-cyano-5-methoxy-indol-1-yl)-benzylcarbamoyl]-cyclopropyl}-amide], the Ki in test [1] was under 0.02 µM. Moreover, in test [2], the IC50 is under 0.02 µM.

The values above are taken from patent US20130217702A1 (Richter Gedeon Nyrt., priority 2010, published 2013).
